From paper PMC4475657 (Iranian Journal of Basic Medical Sciences, 2015) come the findings set out here.

The structures appear in SMILES notation.

This assay has as its target human tau protein 1N/4R isoform (htau34) (Homo sapiens, UniProt P10636). Put plainly: ThT fluorescence aggregation assay of purified tau. Type of assay: biochemical.

Chain of human tau protein 1N/4R isoform (htau34) (P10636 1-412 isoform P10636-7): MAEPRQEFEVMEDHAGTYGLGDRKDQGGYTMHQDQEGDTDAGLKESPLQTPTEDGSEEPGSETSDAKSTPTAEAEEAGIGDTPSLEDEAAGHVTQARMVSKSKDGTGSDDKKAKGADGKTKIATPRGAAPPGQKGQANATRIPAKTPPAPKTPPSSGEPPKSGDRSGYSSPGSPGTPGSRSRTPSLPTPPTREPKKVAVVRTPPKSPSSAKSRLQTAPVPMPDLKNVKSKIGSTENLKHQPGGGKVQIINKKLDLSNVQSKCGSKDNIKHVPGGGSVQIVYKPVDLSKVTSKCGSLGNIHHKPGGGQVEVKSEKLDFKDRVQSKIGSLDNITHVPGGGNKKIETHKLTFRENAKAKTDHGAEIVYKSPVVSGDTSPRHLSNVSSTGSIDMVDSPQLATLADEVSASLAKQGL

One may read the IC50 as the concentration needed to halve the response being measured. Higher therefore signals weaker potency in that assay. `CC(/C=C/C=C(\C)C(=O)O[C@@H]1O[C@H](CO[C@@H]2O[C@H](CO)[C@@H](O)[C@H](O)[C@H]2O)[C@@H](O)[C@H](O)[C@H]1O)=C\C=C\C=C(C)\C=C\C=C(/C)C(=O)O[C@@H]1O[C@H](CO[C@@H]2O[C@H](CO)[C@@H](O)[C@H](O)[C@H]2O)[C@@H](O)[C@H](O)[C@H]1O` [crocin] showed an IC50 of 102 µM.
